Assay results: patent US7994176B2, “Inhibitors of 11-beta-hydroxysteroid dehydrogenase 1” (Eli Lilly and Company, priority 2006, dated 2011)

Key:
[1] = molecular target: T1, 11β-HSD1 (Homo sapiens, UniProt P28845); test: Human aortic smooth muscle cell assay; assay type: cell-based; details: primary human AoSMC, hTNFα-induced 11β-HSD1, cortisol formed from cortisone
T1 construct: hTNFα to induce expression of 11β-HSD1; endogenous in cells; host or cells: primary human aortic smooth muscle cells (AoSMC), induced with hTNFα
Description: Human Aortic Smooth Muscle Cell Assay
Primary human aortic smooth muscle cells (AoSMC) are cultured in 5% FBS growth medium to a passage number of 6, then pelleted by centrifugation and resuspended at a density of 9×10^4 cells/mL in 0.5% FBS assay medium containing 12 ng/mL hTNFα to induce expression of 11β-HSD1. Cells are seeded into 96-well tissue culture assay plates at 100 μL/well (9×10^3 cells/well) and incubated for 48 hours at 37° C., 5% CO2. Following induction, cells are incubated for 4 hours at 37° C., 5% CO2 in assay medium containing test compounds then treated with 10 μL/well of 10 μM cortisone solubilized in assay medium, and incubated for 16 hours at 37° C., 5% CO2. Medium from each well is transferred to a plate for subsequent analysis of cortisol using a competitive fluorescence resonance time resolved immunoassay. […] Higher levels of free cortisol result in diminishing energy transfer from the Europium-IgG to the APC-cortisol complex resulting in less APC fluorescence. Fluorescent intensities for Europium and APC are measured using a LJL Analyst AD. Europium and APC […] is measured using 360 nm excitation and 615 nm and 650 nm emission filters respectively. […] Fluorescent intensities measured for APC are modified by dividing by the Eu fluorescence (APC/Eu). […]

[2] = test system: cortisone conversion; test: Acute in vivo cortisone conversion assay; details: male C57BL/6 mice, oral, cortisone challenge 16 hours post dose, serum cortisol
Description: Acute In Vivo Cortisone Conversion Assay
In general, compounds are dosed orally into mice, the mice are challenged with a subcutaneous injection of cortisone at a set timepoint after compound injection, and the blood of each animal is collected some time later. Separated serum is then isolated and analyzed for levels of cortisone and cortisol by LC-MS/MS, followed by calculation of mean cortisol and percent inhibition of each dosing group. Specifically, male C57BL/6 mice are obtained from Harlan Sprague Dawley at average weight of 25 grams. Exact weights are taken upon arrival and the mice randomized into groups of similar weights. Compounds are prepared in 1% w-w HEC, 0.25% w-w polysorbate 80, 0.05% w-w Dow Corning antifoam #1510-US at various doses based on assumed average weight of 25 grams. Compounds are dosed orally, 200 μl per animal, followed by a subcutaneous dose, 200 μl per animal, of 30 mg/kg cortisone at 1 to 24 hours post compound dose. At 10 minutes post cortisone challenge, each animal is euthanized for 1 minute in a CO2 chamber, followed by blood collection via cardiac puncture into serum separator tubes. Once fully clotted, tubes are spun at 2500×g, 4° C. for 15 minutes, the serum transferred to wells of 96-well plates (Corning Inc, Costar #4410, cluster tubes, 1.2 ml, polypropylene), and the plates are frozen at −20° C. until analysis by LC-MS/MS. […]

T1 sequence (P28845 whole entry): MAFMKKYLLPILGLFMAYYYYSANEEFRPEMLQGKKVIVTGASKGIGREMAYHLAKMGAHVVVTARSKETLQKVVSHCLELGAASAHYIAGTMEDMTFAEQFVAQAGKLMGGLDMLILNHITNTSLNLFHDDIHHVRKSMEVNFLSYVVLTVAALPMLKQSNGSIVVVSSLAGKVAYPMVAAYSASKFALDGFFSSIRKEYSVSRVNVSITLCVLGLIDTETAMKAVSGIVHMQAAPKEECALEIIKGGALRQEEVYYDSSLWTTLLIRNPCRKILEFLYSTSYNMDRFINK

Row | Structure (SMILES) | IC50 [1] | % Inhibition after 16 hours ([2]; dose of 30 mg/kg) | % Inhibition after 16 hours ([2]; dose of 10 mg/kg)
1 | O=C(c1ccc(-c2cc(Cl)c(CN3CCC(C4CCCCC4)C3=O)c(Cl)c2)cc1)N1CCN(CCF)CC1 (racemic) [Example 5, 3-Cyclohexyl-1-{3,5-dichloro-4′-[4-(2-fluoro-ethyl)-piperazine-1-carbonyl]-biphenyl-4-ylmethyl}-pyrrolidin-2-one] | 15.4 nM | 84 (dose of 30 (mg/kg)) % | 
2 | O=C(c1ccc(-c2cc(Cl)c(CN3CCC(N4CCCCC4)C3=O)c(Cl)c2)cc1)N1CCC(C(F)(F)F)CC1 (racemic) [Example 16, 1-[3,5-Dichloro-4′-(4-trifluoromethyl-piperidine-1-carbonyl)-biphenyl-4-ylmethyl]-3-piperidin-1-yl-pyrrolidin-2-one] | 294 nM |  | 38 (dose of 10 (mg/kg)) %
